Reference: the NIST ThermoML archive (doi:10.1016/j.fluid.2016.07.034)

Test: molar heat capacity at constant pressure
Conditions: Liquid, Flow calorimetry

O [water]
Conditions	molar heat capacity at constant pressure [J/K/mol]
304.24 K, 100 kPa	75.43
304.28 K, 3030 kPa	74.86
304.36 K, 11970 kPa	74.97
304.37 K, 6180 kPa	75.16
304.4 K, 9010 kPa	74.98
323.09 K, 90 kPa	75.69
323.13 K, 3180 kPa	75.16
323.15 K, 6040 kPa	74.94
323.17 K, 9000 kPa	74.7
323.19 K, 11970 kPa	74.58
371.11 K, 990 kPa	76.21
371.19 K, 2980 kPa	75.91
371.24 K, 5990 kPa	75.65
371.27 K, 9030 kPa	75.39
371.3 K, 12040 kPa	75.11
424.19 K, 12070 kPa	77.23
424.24 K, 1390 kPa	77.92
424.29 K, 3030 kPa	77.82
424.35 K, 6180 kPa	76.99
424.43 K, 9080 kPa	76.79
424.52 K, 15080 kPa	76.51
473.34 K, 2710 kPa	80.78
473.45 K, 6220 kPa	80.48
473.51 K, 9230 kPa	80.25
473.56 K, 12190 kPa	80.08
473.61 K, 15070 kPa	79.73
526 K, 6030 kPa	87.65
526.12 K, 9260 kPa	87.01
526.17 K, 12250 kPa	86.6
526.23 K, 15120 kPa	86.16
577.06 K, 9960 kPa	104.34
577.11 K, 11800 kPa	102.67
577.14 K, 13510 kPa	102.15
577.18 K, 15110 kPa	100.84
